Experimental data as given in patent publication US11938113B2, “Epigallocathechin gallate solution” (ASSISTANCE PUBLIQUE—HOPITAUX DE PARIS, priority 2017, dated 2024).
Several values for one entry are separate records, joined by “and”; a condition that tells them apart may be missing. Identical values can stand only once. Like-named read-outs stand apart in the source and are kept apart here.

Tests used:
[1] = at normal condition, in water; cited from earlier work
[2] = Solubility of EGCG in sucrose solution versus EGCG alone in water; format: physicochemical; settings: after 4 hours of dissolution
Source text: The solubility of EGCG in a solution containing 10% by weight of sucrose is compared to that of EGCG alone in water.

[3] = Stress stability testing (thermal gradient 25 to 135° C., HPLC of residue); format: physicochemical; settings: heating 25 to 135° C. at 5° C. per min
Procedure: Both solutions were subjected to progressive heating ranging from 25 to 135° C. at a rate of 5° C. per minute. At end of heating, the residues formed from each solution are illustrated in FIG. 2A and are analyzed by high performance liquid chromatography.
1 mL of the reference standard suspension and a formulation of the invention disclosed Table 1 before were subjected to a thermal gradient program ranging from 25 to 135° C. at a rate of 5° C. per min. At the end of this exposure, part of each of the residues formed was deposited on a glass slide and the remaining part analyzed by high performance liquid chromatography.

[4] = after 1-h ultra violet irradiation; cited from earlier work

For `O=C(O[C@@H]1Cc2c(O)cc(O)cc2O[C@@H]1c1cc(O)c(O)c(O)c1)c1cc(O)c(O)c(O)c1` [EGCG, Epigallocatechin gallate], the “solubility of EGCG” value [1] is listed as 4.6 g/L and 10 mM, the “solubility of EGCG” value [2] is listed as no more than 5 g/L and the “appearance of residue at the end of heating” value [3] is listed as “black”. The “chromatographic analysis of residue (EGCG remaining)” value ([3]; HPLC) was “practically no more EGCG” and the “decomposition of EGCG” value [4] was 70%.
